The values below come from US10252984B2, “Inhibiting G protein coupled receptor 6 kinase polypeptides” (Mayo Foundation for Medical Education and Research, priority 2011, dated 2019).

The assay addresses GRK6, recombinant full-length GST-tagged human protein (Homo sapiens (Human), UniProt P43250). Kind of assay: GRK6 LabChip microfluidic mobility shift kinase assay. The following applies: for IC50 values of model inhibitors: at ATP Km, 12-pt dose response, duplicates, values only in FIG. 1. The class given is biochemical. Here is the method: […] All determinations were performed in duplicates. To obtain the IC50 values and the Hill coefficient, the 4-parameter logistic equation was fitted to the data by non-linear regression using XLFit software.

The mark [1] stands for this setting: 8-point concentration-response, top concentration 60 μM, ATP 12 μM (Km).
The mark [2] stands for this setting: GRK6 polypeptide inhibition assay, class symbols.

As a reminder, the IC50 is the concentration that inhibits the measured activity by half.

Chain of GRK6, recombinant full-length GST-tagged human protein (P43250 whole entry): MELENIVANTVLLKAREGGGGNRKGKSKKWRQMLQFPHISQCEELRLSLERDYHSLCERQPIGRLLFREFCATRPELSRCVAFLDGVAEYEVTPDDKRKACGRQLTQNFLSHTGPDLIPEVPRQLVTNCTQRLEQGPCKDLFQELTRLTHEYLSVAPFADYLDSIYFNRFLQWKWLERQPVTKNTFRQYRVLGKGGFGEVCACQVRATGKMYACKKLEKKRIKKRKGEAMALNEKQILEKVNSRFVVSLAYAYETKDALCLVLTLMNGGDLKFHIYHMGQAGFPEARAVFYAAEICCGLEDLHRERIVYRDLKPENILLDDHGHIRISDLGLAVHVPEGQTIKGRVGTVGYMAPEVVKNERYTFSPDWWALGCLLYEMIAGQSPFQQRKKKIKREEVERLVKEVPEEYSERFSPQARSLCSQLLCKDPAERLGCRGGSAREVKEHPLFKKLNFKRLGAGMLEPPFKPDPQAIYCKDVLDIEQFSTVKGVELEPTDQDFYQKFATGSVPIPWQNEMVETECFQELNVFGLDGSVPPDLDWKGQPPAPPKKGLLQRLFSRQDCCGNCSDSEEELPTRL

For `CCOC(=O)c1ccc(CC(=O)c2ccc(O)c(O)c2O)o1`, under setting [1], the IC50 is 7.05 µM.
Same read-out and setting: the value for `O=c1cc(-c2ccc(O)cc2)oc2cc(O)c(O)c(O)c12` was 6.61 µM; that for `COc1cc(/C=C2/SC(=S)N(c3cccnc3)C2=O)ccc1O` was 40.6 µM; that for `Oc1ccc(-c2nc3ccc4ccccc4c3c3c2CCC3)cc1O` was 28.4 µM.
Consider `CCN(CC)c1ccc(C2Nc3cccc4cccc(c34)N2)c(O)c1`, for which, under setting [1], the IC50 was 8.44 µM.
The same measure, in the same setting: the figure for `Cc1cc(NC(c2ccccn2)c2ccc3cccnc3c2O)no1` (stereo not drawn) is 6.45 µM; for `Cc1cccc(NC2=NC(=O)/C(=C/c3ccc(O)c(O)c3)S2)c1C` it is 7.11 µM.
The same measure, in the same setting: the value for `Oc1c(C(Nc2ccccn2)c2cccnc2)ccc2cccnc12` (stereo not drawn) was 6.75 µM.
Consider `CCOc1ccc(NC(c2ccccn2)c2ccc3cccnc3c2O)cc1` (stereo not drawn), for which the IC50 under setting [1] came out at 4.48 µM.
As for `Cc1nc2ccccn2c1-c1csc(Nc2ccc(N)cc2)n1`, the IC50 under setting [1] was greater than 60 µM.
Same read-out and setting: the value for `CCn1c(COc2ccccc2)nnc1SCCC(=O)O` was greater than 60 µM; that for `N#CC1=C(N)Oc2cc(N)ccc2C1c1cc2cc3c(cc2nc1Cl)OCO3` (stereo not drawn) was 6.48 µM.
Regarding `Cc1ccc(-c2ccccc2NS(=O)(=O)c2ccc(S(=O)(=O)N3CCCCCC3)cc2)o1`, the IC50 runs as follows: under setting [1], greater than 60 µM; under setting [2], greater than 20 µM.
With `O=S(=O)(Nc1ccc(-n2cnnn2)cc1)c1ccc(S(=O)(=O)N2CCCCCC2)cc1`, under setting [1], the IC50 is greater than 60 µM.
Still for that read-out and setting: the value for `CCNC(=S)N(CCO)Cc1cc2cc3c(cc2[nH]c1=O)OCO3` was greater than 60 µM.
With `CCOc1cc(-c2ccc(O)c(O)c2)cc(=O)c2c(C)oc(C)c12`, under setting [1], the IC50 is 4.41 µM.
Still for that read-out and setting: the figure for `N#CC1=C(N)Oc2cc(N)ccc2C1c1cccs1` (stereo not drawn) is 11.8 µM.
`NC(=O)c1cc(N)c2c(c1N)C(=O)c1ccccc1C2=O`: the IC50 under setting [1] is 12.7 µM.
Take `O=C1Nc2ccc(S(=O)(=O)N3CCCCC3)c3cccc1c23`: the IC50 under setting [1] is greater than 60 µM.
Same read-out and setting: the value for `Cc1ccc(C2C(C#N)=C(N)Oc3cc(N)ccc32)cc1` (stereo not drawn) was 26 µM; that for `CC(=O)Nc1ccc(Nc2nnc(-c3ccc(O)cc3)c3ccccc23)cc1` was greater than 60 µM; that for `COCCNC(=O)CN(C(=O)c1snc(C(N)=O)c1N)c1ccccc1` was greater than 60 µM.
On the same count and under the same terms, the value for `CCOc1cccc(=O)c2c(C)[nH]c(C)c12` was 2.55 µM; that for `Cc1cc2c(C(C)C)c(O)c(O)c(/C=N/CCCN3CCOCC3)c2c(O)c1-c1c(C)cc2c(C(C)C)c(O)c(O)c(/C=N/CCCN3CCOCC3)c2c1O` was 10.1 µM.
The same measure, in the same setting: the figure for `Nc1ccc2c3c1C(=O)OC3(O)c1ccccc1C2=O` (stereo not drawn) is 47 µM.
In the case of `Cc1cc2c(c(O)c1-c1c(C)cc3c(c1O)/C(=C/NCCCN1CCOCC1)C(=O)C(O)=C3C(C)C)/C(=C/NCCCN1CCOCC1)C(=O)C(O)=C2C(C)C`, the IC50 under setting [1] worked out at 16.9 µM.
On the same count and under the same terms, the value for `CCN(CC)CCn1c2ccccc2c2cnc(N)c(C#N)c21` was 18.8 µM; that for `CCN(CC)c1ccc(C(c2c(C)n[nH]c2O)c2c(C)n[nH]c2O)cc1` was 9.93 µM.
In the case of `CCOC(=O)c1c(N)n(C2CC2)c2nc3ccccc3nc12`, the IC50 under setting [1] is 2.83 µM.
Consider `CCCCC(CC)CNC(=O)c1ccc(N/N=C2\C(=O)Nc3ccc(Br)cc32)cc1` (stereo not drawn), for which, under setting [1], the IC50 was greater than 60 µM.
Regarding `CN(C)c1ccc(O)c2c1CC1CC3[C@H](N(C)C)C(O)=C(C(N)=O)C(=O)[C@@]3(O)C(O)=C1C2=O` (stereo partly drawn), the IC50 under setting [1] amounted to 1.37 µM.
Same read-out and setting: the value for `O=c1cc(-c2ccccc2)oc2cc(O)c(O)c(O)c12` was 8.7 µM.
For `Cc1ccc([N+](=O)[O-])c(NC2OC(CO)C(O)C2O)c1` (stereo not drawn), the IC50 was 12 µM under setting [1] and 10.1 to 20 µM under setting [2].
Regarding `CCOc1cccc(=O)c2c(C)n(-c3ccc(C)cc3)c(C)c12`, under setting [1], the IC50 came to 3.4 µM.
Consider `COc1ccc(-c2cc(=O)oc3c(O)c(O)ccc23)cc1`, for which the 50% inhibitory concentration (IC50) under setting [1] worked out at 7.16 µM.
Regarding `C=CCn1c(N)c(C(=O)OC)c2nc3ccccc3nc21`, under setting [1], the IC50 came to 0.973 µM.
Same read-out and setting: the figure for `CCCCn1c(N)c(C#N)c2nc3ccccc3nc21` is 1.56 µM.
For `CCCCCn1c(N)c(C(=O)OC)c2nc3ccccc3nc21`, the IC50 under setting [1] is 1.03 µM.
On the same count and under the same terms, the figure for `CCCCCCn1c(N)c(C(=O)OC)c2nc3ccccc3nc21` is 1.43 µM; for `O=C(O)c1ccc([C@@H]2Nc3ccc(I)cc3[C@@H]3C=CC[C@@H]32)cc1` it is 6.66 µM; for `O=[N+]([O-])c1cc(C2=NN=C(NCc3ccco3)SC2)ccc1Cl` it is 6.62 µM.
The same measure, in the same setting: the value for `c1ccc(-c2ccc(C3=NN=C(NCc4ccco4)SC3)cc2)cc1` was 10.4 µM.
As to `Oc1ccc(-c2nnc(NCCc3ccccc3)s2)cc1`, the IC50 under setting [1] was greater than 60 µM.
Still for that read-out and setting: the figure for `Cc1cccc(-c2nnc(SCC(=O)O)[nH]2)c1` is 1.44 µM; for `O=C(O)CSc1nnc(-c2ccc(OC(F)(F)F)cc2)[nH]1` it is 5.92 µM; for `O=C(O)CSc1nnc(-c2cccs2)[nH]1` it is 4.6 µM.
Still for that read-out and setting: the value for `Cc1ccc2nc(NC=O)sc2c1` was greater than 60 µM; that for `Nc1ccc(CCc2nc3cc(N)ccc3o2)cc1` was 17.8 µM.
Still for that read-out and setting: the figure for `C1=Nc2cccc3cccc(c23)N1` is 12.5 µM; for `COc1ccc(-c2cnc(-c3cccnc3)o2)cc1` it is greater than 60 µM.
With `O=S(=O)(NCCNC/C=C/c1ccc(Br)cc1)c1cccc2cnccc12` [H89, reference compound], the “IC50 values of model inhibitors” value was “in good agreement with published data”.
The same measure, in the same setting: the value for `Cn1cc(C2=C(c3cn(CCCSC(=N)N)c4ccccc34)C(=O)NC2=O)c2ccccc21` [Ro-31-8220, reference compound] was “in good agreement with published data”.
